Values after ≈ are worked out from the molar mass of the structure shown.
Legend:
[1] = test system: C. albicans E81022 strain; test: Anti-Candida activity (MIC measurement); type: cell-based; conditions: E81022STRAIN, MIC by visual inspection, C. albicans E81022, 48 hours at 30 to 35° C.
Procedure: (§1) For the C. albicans E81022 strain, a fungal suspension from a standing culture for 48 hours at 30° C. in a Sabouraud dextrose liquid culture medium (SDB) was diluted 10,000-fold with a 1.3-fold concentrated SDB to adjust to a fungal suspension of 1 to 2×10^4 cells/ml. For the A. fumigatus Tsukuba strain, −80° C. stored strain was diluted 1,000-fold with a 1.3-fold concentrated SDB to adjust to a fungal suspension of 2 to 3×10^3 cells/ml.
(§2) Using a U-bottomed 96 well plate, 8 samples/plate (A to H) of sample dilution solutions were prepared. On the 3rd row of each plate was dispensed 240 μl of sterilized and distilled water, and on the 2nd and 4th to 12th rows were dispensed 125 μl of 4% dimethylsulfoxide solution. Weighed sample was dissolved in dimethylsulfoxide to prepare a 2.5 to 20 mg/ml solution, 10 μl of this solution was then added to the 3rd row of the prepared plate, and 10 steps of two-fold step dilutions (125 μl of solution+125 μl of 4% dimethylsulfoxide) were performed on the plate.
(§3) The fungal suspension preprared in (1) was used in the amount of 75 μl/well to inoculate a V-bottomed or flat-bottomed 96 well plate containing 25 μl/well of test compound dilution solution prepared in (2), and a standing culture was carried out aerobically for 48 hours at 30 to 35° C.

[2] = test system: A. fumigatus Tsukuba strain; test: Anti-Aspergillus activity (MIC measurement); type: cell-based; conditions: MIC by visual inspection, 48 hours at 30 to 35° C.
Procedure: as §1, §2, §3

[3] = test system: C. albicans E81022 strain; test: Experimental systemic candida infection model in mice; type: in vivo, female ICR mice; conditions: C. albicans i.v. infection, 2.5 mg/kg peroral 3 times every 4 hours, observed until 14 days after infection
Procedure: A standing culture of C. albicans E81022 strain was carried out for 48 hours at 30° C. in Sabouraud dextrose agar medium (SDA), the recovered fungal cells were suspended in sterilized physiological saline. By counting the fungal number on a cytometry plate, the suspension was diluted to 2×10^7 cells/ml with sterilized physiological saline to serve as fungal inoculum.
The fungal inoculum was used in the amounts of 0.2 ml to inoculate 4.5 to 5.5 week-old female ICR mice in the tail vein (4×10^6 cells/mouse).
From 0.5 to 1 hour after fungal inoculation, 0.2 ml of agent solution (dissolved or suspended in sterilized physiological saline containing 6.5% dimethylsulfoxide and 3.5% Tween 80) was administered into the stomach using a peroral probe, 3 times every 4 hours. The agent concentration was 2.5 mg/kg, and the number of animals in one group was 5 animals.
(§4) The protective effect was determined by observing life/death until 14 days after infection and calculating the mean survival days.

[4] = test system: A. fumigatus Tsukuba strain; test: Experimental respiratory aspergillus infection model in mice; type: in vivo, female DBA/2N mice; conditions: 5-fluorouracil-treated mice, A. fumigatus nasal infection, 20 or 40 mg/kg peroral 3 times per day for 3 days, observed until 14 days after infection
Procedure: In order to increase susceptibility of the mice to infection, 200 mg/kg of 5-fluorouracil was administered subcutaneously 6 days prior to infection.
A. fumigatus Tsukuba strain was used.
A spore suspension of the infection strain was used to coat a potato dextrose agar medium (PDA), a standing culture was carried out for 4 to 7 days at 35° C., spore was then suspended in a sterilized physiological saline containing 0.05% Tween 80. By counting the pore count on a cytometry plate, the suspension was diluted to 6×10^5 cells/ml with sterilized physiological saline containing 0.05% Tween 80 to serve as fungal inoculum.
Under ketalar anesthesia, 50 μl of fungal inoculum was used to inoculate 8 to 9 week-old female DBA/2N mice in the nose (3×10^4 cells/mouse).
From 1 hour after fungal inoculation, 0.2 ml of agent solution (dissolved or suspended in sterilized physiological saline containing 6.5% DMSO and 3.5% Tween 80), was administered into the stomach using a peroral probe 3 times per day for 3 days. The agent dosage was from 20 or 40 mg/kg, and the number of animals in one group was 5 animals.
as §4

SMILES | MIC [1] [µg/mL] | MIC [2] [µg/mL] | Mean Survival Days [3] [days] | Mean Survival Days [4] [days]
Nc1ccc(C(=O)NCc2ccc(OCc3ccccc3)cc2)c(N)n1 [Example A-10, 2,6-Diamino-N-(4-benzyloxy-benzyl)-nicotinamide] | 0.78 (≈ 2.24 µM) | 1.56 (≈ 4.48 µM) | 12.5 | –
Nc1ccc(C(=O)NCc2ccc(OCc3ccccc3F)cc2)c(N)n1 [Example A-11, 2,6-Diamino-N-(4-(2-fluoro-benzyloxy)-benzyl)-nicotinamide] | – | – | – | 10.4
COCc1ccc(C(=O)NCc2ccc(OCc3ccccn3)cc2)c(N)n1 [Example A-31, 2-Amino-6-methoxymethyl-N-(4-(pyridin-2-ylmethoxy)-benzyl)-nicotinamide] | – | – | – | 11.2
COCc1ccc(C(=O)NCc2ccc(OCc3ccc(F)cc3)cc2)c(N)n1 [Example A-32, 2-Amino-N-(4-(4-fluoro-benzyloxy)-benzyl)-6-methoxymethyl-nicotinamide] | – | – | – | 11.8
Nc1ccc(C(=O)NCc2ccc(Oc3ccc(F)cc3)s2)c(N)n1 [Example A-53, 2,6-Diamino-N-(5-(4-fluoro-phenoxy)-thiophen-2-ylmethyl)-nicotinamide] | 0.39 (≈ 1.09 µM) | 0.78 (≈ 2.18 µM) | 13.4 | –
Nc1ccc(C(=O)NCc2ccc(Oc3ccccc3)s2)c(N)n1 [Example A-54, 2,6-diamino-N-(5-phenoxy-thiophene-2-ylmethyl)-nicotinamide] | 0.78 (≈ 2.29 µM) | 1.56 (≈ 4.58 µM) | 10.0 | –
Nc1ccc(C(=O)NCc2ccc(Cc3ccccc3)s2)c(N)n1 [Example A-55, 2,6-Diamino-N-(5-benzyl-thiophen-2-ylmethyl)-nicotinamide] | – | – | – | 12.6
Nc1ccc(C(=O)NCc2ccc(OCc3ccccc3)s2)c(N)n1 [Example A-56, 2,6-Diamino-N-(5-benzyloxy-thiophen-2-ylmethyl)-nicotinamide] | – | – | – | 10.8
Nc1ncccc1C(=O)NCc1ccc(Oc2cccc(F)c2)s1 [Example A-68, 2-Amino-N-(5-(3-fluoro-phenoxy)-thiophen-2-ylmethyl)-nicotinamide] | 0.05 (≈ 0.146 µM) | 0.78 (≈ 2.27 µM) | 10.6 | –
Nc1ncccc1C(=O)NCc1ccc(Cc2ccccc2)s1 [Example A-70, 2-Amino-N-(5-benzyl-thiophen-2-ylmethyl)-nicotinamide] | 0.05 (≈ 0.155 µM) | 0.78 (≈ 2.41 µM) | 12.6 | –
Nc1ccc(C(=O)NCc2ccc(Oc3cccc(F)c3)s2)cn1 [Example A-137, 6-Amino-N-(5-(3-fluorophenoxy)thiophen-2-ylmethyl)nicotinamide] | 1.56 (≈ 4.54 µM) | – | 12.8 | –
O=C(NCc1ccc(Oc2cccc(F)c2)s1)c1ccc2ncccc2c1 [Example E-65, Quinoline-6-carboxylic acid (5-(3-fluorophenoxy)thiophen-2-ylmethyl) amide] | 0.1 (≈ 0.264 µM) | 1.56 (≈ 4.12 µM) | 11.6 | –
O=C(NCc1cccc(Oc2ccccc2)c1)c1ccc2nccnc2c1 [Example I-1, Quinoxaline-6-carboxylic acid 3-phenoxybenzylamide] | 0.78 (≈ 2.19 µM) | 1.56 (≈ 4.39 µM) | – | –
O=C(NCc1ccc(Oc2ccccc2)s1)c1cnc2[nH]ccc2c1 [Example R-1, 1H-Pyrrolo[2,3-b]pyridine-5-carboxylic acid (5-phenoxy-thiophen-2-ylmethyl)-amide] | 0.39 (≈ 1.12 µM) | 3.13 (≈ 8.96 µM) | 10.4 | –
Nc1nc(NCc2ccc(OCc3ccccc3)cc2)c2cccnc2n1 [Example Y-1, N*4*-(4-Benzyloxy-benzyl)-pyrido[2,3-d]pyrimidine-2,4-diamine] | 0.78 (≈ 2.18 µM) | 6.25 (≈ 17.5 µM) | – | –

Further lines, with some results ahead:

MIC [1] [µg/mL] | MIC [2] [µg/mL] | SMILES | Mean Survival Days [3] [days] | Mean Survival Days [4] [days]
0.78 (≈ 2.28 µM) | 3.13 (≈ 9.14 µM) | O=C(NCc1cccc(C=C2CCCC2)c1)c1ccc2ncccc2c1 [Example E-51, 6-Quinolinecarboxylic acid 3-cyclopentylydenemethylbenzylamide] | – | –
1.56 (≈ 4.04 µM) | 3.13 (≈ 8.1 µM) | O=C(NCc1ccc(OCc2ccccc2)cc1F)c1ccc2ncccc2c1 [Example E-53, Quinoline-6-carboxylic acid 4-benzyloxy-2-fluoro-benzalamide] | – | –
0.2 (≈ 0.586 µM) | 6.25 (≈ 18.3 µM) | O=C(NCc1ccn(Cc2ccccc2)c1)c1ccc2ncccc2c1 [Example E-57, Quinoline-6-carboxylic acid (1-benzyl-1H-pyrrol-3-ylmethyl)-amide] | – | –
0.2 (≈ 0.519 µM) | 6.25 (≈ 16.2 µM) | N#Cc1cccc(Oc2ccc(CNC(=O)c3ccc4ncccc4c3)s2)c1 [Example E-64, Quinoline-6-carboxylic acid (5-(3-cyano-phenoxy)-thiophen-2-ylmethyl)-amide] | – | –
0.39 (≈ 1.03 µM) | 0.78 (≈ 2.06 µM) | O=C(NCc1ccc(Oc2ccc(F)cc2)s1)c1ccc2ncccc2c1 [Example E-67, Quinoline-6-carboxylic acid (5-(4-fluorophenoxy)thiophen-2-yl)methyl amide] | – | –
0.1 (≈ 0.264 µM) | 1.56 (≈ 4.12 µM) | O=C(NCc1cc(Oc2cccc(F)c2)cs1)c1ccc2ncccc2c1 [Example E-69, Quinoline-6-carboxylic acid (4-(3-fluoro-phenoxy)-thiophen-2-ylmethyl)-amide] | – | –
0.2 (≈ 0.509 µM) | 1.56 (≈ 3.97 µM) | O=C(NCc1ccc(Cc2cccc(Cl)c2)s1)c1ccc2ncccc2c1 [Example E-71, Quinoline-6-carboxylic acid (5-(3-chlorobenzyl)-thiophen-2-ylmethyl)-amide] | – | –
0.2 (≈ 0.528 µM) | 0.78 (≈ 2.06 µM) | Cc1ccc(Cc2ccc(CNC(=O)c3ccc4ncccc4c3)s2)s1 [Example E-73, Quinoline-6-carboxylic acid (5-(5-methyl-thiophen-2-ylmethyl)-thiophen-2-ylmethyl)-amide] | – | –
0.78 (≈ 2.18 µM) | 1.56 (≈ 4.35 µM) | Cc1nc2ccc(C(=O)NCc3cccc(Oc4ccccc4)c3)cc2o1 [Example K-1, 2-Methyl-benzoxazole-6-carboxylic acid 3-phenoxybenzylamide] | – | –
0.2 (≈ 0.51 µM) | 0.2 (≈ 0.51 µM) | O=C(NCc1ccc(OCc2cccc(F)c2)cc1)c1ccc2ncsc2c1 [Example L-4, Benzothiazole-6-carboxylic acid 4-(3-fluoro-benzyloxy)-benzylamide] | – | –
0.1 (≈ 0.273 µM) | 0.78 (≈ 2.13 µM) | O=C(NCc1ccc(Oc2ccccc2)s1)c1ccc2ncsc2c1 [Example L-7, Benzothiazole-6-carboxylic acid (5-phenoxythiophen-2-ylmethyl)-amide] | – | –
1.56 (≈ 4.32 µM) | 1.56 (≈ 4.32 µM) | O=C(NCc1cccc(Oc2ccccc2)c1)c1ccc2nsnc2c1 [Example M-1, Benzo[1,2 5]thiadiazole-5-carboxylic acid 3-phenoxybenzylamide] | – | –
0.39 (≈ 1.12 µM) | 6.25 (≈ 17.9 µM) | O=C(NCc1ccc(Oc2ccccc2)s1)c1ccc2nccn2c1 [Example Q-7, Imidazo[1,2-a]pyridine-6-carboxylic acid (5-phenoxy-thiophen-2-ylmethyl)-amide] | – | –
0.78 (≈ 2.13 µM) | 3.13 (≈ 8.54 µM) | O=C(NCc1ccc(Oc2ccccc2)s1)c1cnc2ccsc2c1 [Example U-2, Thieno[3,2-b]pyridine-6-carboxylic acid (5-phenoxy-thiophen-2-yl methyl)-amide] | – | –
0.39 (≈ 1.15 µM) | 0.78 (≈ 2.29 µM) | c1ccc(COc2ccc(NCc3ccc4ncccc4c3)cc2)cc1 [Example W-1, (4-Benzyloxy-phenyl)-quinolin-6-ylmethyl-amine] | – | –
1.56 (≈ 4.58 µM) | 0.78 (≈ 2.29 µM) | c1ccc(COc2ccc(CNc3ccc4ncccc4c3)cc2)cc1 [Example W-2, (4-Benzyloxy-benzyl)-quinolin-6-yl-amine] | – | –
